Legend:
[1] = system: wild-type AB strain zebrafish; test: qPCR gene expression in zebrafish larvae; format: in vivo, zebrafish (Danio rerio); details: BBR 25 or 50 μM, M1 100 or 200 μM
Description: Wild-type AB strain zebrafish (6 hpf) were treated with BBR (25 or 50 μM), M1 (100 or 200 μM), or 0.05% DMSO (control) until 5 dpf, with 30 larvae per treatment and three biological replicates (total 90 larvae per group). A total of 30 larvae were pooled per sample (3 samples per group), collected, and homogenized. Total RNA was isolated using a commercial RNA extraction kit following the manufacturer’s protocol. The concentration and purity of the extracted RNA were determined by measuring the absorbance at 260 nm and 280 nm using a NanoDrop 2000 ultraviolet-visible spectrophotometer (Thermo, Waltham, MA, USA). A total of 1 µg of RNA from each sample was reverse-transcribed into complementary DNA (cDNA) using a PrimeScript RT reagent kit (Takara Bio Inc., Dalian, China). The reverse transcription reaction was performed in a T100 Thermal Cycler (BIO-RAD, Singapore) under the following conditions: 37 °C for 15 min, followed by 85 °C for 5 s.
The qPCR reactions were carried out to quantify the relative expression levels of target genes, including photoreceptor-related genes (rho and opn1sw), mitochondrial dynamics genes (mfn2 and drp1), autophagy markers (lc3b and p62), apoptosis-related genes (baxa, bcl2a, caspase9, caspase3, and caspase7), and inflammation-related genes (il1b and il6), on a CFX Connect quantitative real-time PCR instrument (BIO-RAD, Singapore). The experiment was performed according to the manufacturer’s instruction. β-actin served as the internal reference, and the experiment was repeated in triplicate.

zebrafish larvae eye = test: Zebrafish eye length and area experiment; format: in vivo, zebrafish (Danio rerio); details: zebrafish larvae at 5 dpf vs 0.05% DMSO control; BBR 20-200 µM, M1 20-625 µM
Description: Half of the epiboly embryos (6 hpf under standard conditions) were exposed to solutions (2 mL) of BBR at the concentrations of 20, 50, 100, and 200 µM or M1 at the concentrations of 20, 50, 100, 200, 400, and 625 µM and cultured under standard conditions, taking 0.05% DMSO in saline as the control. The experiment was performed three times using 30 embryos per concentration (n = 90 per group in total). At 5 dpf, embryos were washed 3× with normal medium, transferred to fresh medium, and photographed by E3ISPM20000KPA digital camera (ToupTek, Hangzhou, China), with the magnification of 10–40× and exposure time of 200–500 ms. Then the eye length and area were measured and analyzed using Image J V2.1.X (NIH, Bethesda, MD, USA). Data (eye length/area) were expressed as mean ± SD, compared with the control group, and plotted.

[2] = Zebrafish embryonic developmental toxicity (mortality, LC50); parameters: species or system zebrafish (Danio rerio); details: wild-type AB, in vivo, exposure from 6 hpf, mortality at 5 dpf, read-out: LC50 (half-lethal concentration)
Description: First, the half-lethal concentration (LC50) values of berberine (BBR) and berberrubine (M1) in zebrafish were calculated. Wild-type AB strain zebrafish embryos staged at 6 h post-fertilization (hpf), corresponding to the 50% epiboly stage, were exposed to BBR or M1 at different concentrations. Mortality was recorded via stereomicroscopy at 5 days post-fertilization (5 dpf).
Embryos at 6 hpf (50% epiboly stage) were grouped and exposed to incubation solutions of berberine (BBR) at concentrations of 20, 50, 100, 200, and 400 µM, or M1 at concentrations of 20, 50, 100, 200, 400, and 625 µM, until 5 dpf. The control group was treated with 0.05% DMSO in saline. All experiments were performed in three biological replicates; unless otherwise specified, each replicate included 30 larvae per treatment, resulting in a total of 90 larvae per treatment.
Wild-typed AB strain zebrafish embryos at the 6 h post-fertilization stage (6 hpf) were grouped (30 fishes per group), and BBR at the concentrations of 20, 50, 100 and 200 µM or M1 at the concentrations of 20, 50, 100, 200, 400 and 625 µM were administered by microinjection, taking 0.05% DMSO in saline as the control. The mortality was recorded everyday by SZX2 stereomicroscopy (Olympus, Hachioji-shi, Japan) until 5 dpf. Dead embryos were recorded and discarded every 24 h. […]

[3] = system: transgenic mitochondrial fluorescent zebrafish (strain Tg(Xla.Eef1a1:mlsEGFP)); test: Fluorescence microscopy for mitochondrial function; format: in vivo, zebrafish (Danio rerio); details: 5-dpf larvae; BBR 25 or 50 μM, M1 100 or 200 μM
Description: Strain Tg(Xla.Eef1a1:mlsEGFP) zebrafish larvae (6 hpf) were treated with BBR (25 or 50 μM), M1 (100 or 200 μM), or 0.05% DMSO (control) until 5 dpf, with 30 larvae per treatment and three biological replicates (total 90 larvae per group). Then, 10 larvae were randomly selected from each experimental group and imaged using a motorized-focus continuous-zoom fluorescence microscope AZ100 (Nikon, Japan) with the magnification of 10–40× and exposure time of 200–500 ms. The fluorescence intensity of ocular apoptotic cells in zebrafish larvae and mitochondria throughout the zebrafish were measured and analyzed using NIS-Elements (Nikon Imaging Software, Nikon, Japan). The experiment was conducted three times in parallel.

[4] = system: wild-type AB strain zebrafish; test: Determination of ATP and ROS levels in zebrafish larvae; format: in vivo, zebrafish (Danio rerio); details: BBR 25 or 50 μM, M1 100 or 200 μM, 5 dpf; for ROS levels: relative to control
Description: Wild-type AB strain zebrafish (6 hpf) were treated with BBR (25 or 50 μM), M1 (100 or 200 μM), or 0.05% DMSO (control) until 5 dpf, with 30 larvae per treatment and three biological replicates (total 90 larvae per group). Subsequently, 3 larvae were pooled per sample (10 samples per group) and the entire zebrafish was transferred directly into a 96-well plate for fluorescence detection. Cellular ATP content was determined using the CellTiter-Glo® Luminescent Cell Viability Assay Kit (Promega, Madison, WI, USA), which relies on a bioluminescent principle (luciferase-luciferin reaction). Cellular ROS levels were measured using CM-H2DCFDA kits (Invitrogen, Carlsbad, CA, USA), based on the oxidation of non-fluorescent CM-H2DCFDA to fluorescent DCF by ROS. Reagents were prepared and reactions were performed according to the manufacturers’ instructions, with luminescence detected using a Spark multifunctional microplate reader (Tecan, Grödig, Austria).

[5] = MTT cytotoxicity assay on HCE-T cells; format: cell-based, human; details: human, HCE-T human corneal epithelial cells; HCE-T cells, 24 h incubation
Description: The human corneal epithelial cell line HCE-T (Cellosaurus accession: CVCL_1272, RRID: CVCL_1272, RCB: RCB2280) was purchased from Procell Life Science and Technology Co., Ltd. (Wuhan, China). […] were cultured in high-glucose Dulbecco’s Modified Eagle Medium (DMEM), which was purchased from Procell Life Science and Technology Co., Ltd. (Wuhan, China). The high-glucose DMEM was DMEM basic medium supplemented with 15% fetal bovine serum (Procell), 1% penicillin/streptomycin (Procell), 5 μg/mL insulin, and 10 ng/mL human epidermal growth factor (Procell).
HCE-T cells were seeded in 96-well plates (8 × 10^3 cells/well, 100 μL medium) and cultured overnight at 37 °C, 5% CO2 for adhesion. BBR or its metabolites at various concentrations (BBR and M3 at the concentrations of 31.25, 62.5, 125, 250 and 500 µM, M1 and M4 at the concentrations of 25, 50, 100, 200 and 400 µM) in 0.5% DMSO were added and incubated for 24 h, with 0.5% DMSO in culture medium as the vehicle control. Subsequently, 20 μL MTT (5 mg/mL) was added to each well and the cells were cultured at 37 °C for 4 h. Then, the culture medium was removed, and 150 μL DMSO was added to dissolve formazan crystals and the absorbance at 570 nm was measured on a Synergy H1 multifunctional microplate reader (Biotek, Winooski, VT, USA). The IC50 values of test compounds were calculated by Graphpad Prism 8.5 (GraphPad Software Co., San Diego, CA, USA).

| SMILES | bcl2a expression [1] | expression of baxa, caspase9, caspase3 and caspase7 [1] | expression of drp1 [1] | expression of lc3b [1] | expression of mfn2 [1] | expression of rho and opn1sw genes [1] | p62 levels [1] | transcription of il1β and il6 [1] | eye length and eye area (zebrafish larvae eye) | LC50 [2] | mitochondrial density [3] | intracellular ATP levels [4] | ROS levels [4] | IC50 at 24 h [5] |
| --- | --- | --- | --- | --- | --- | --- | --- | --- | --- | --- | --- | --- | --- | --- |
| COc1ccc2cc3[n+](cc2c1O)CCc1cc2c(cc1-3)OCO2 [M1, berberrubine] | dose-dependently reduced bcl2a expression | increasing the expression of baxa, caspase9, caspase3 and caspase7 | increasing that of drp1 in a concentration-dependent manner | decreasing the expression of lc3b | decreased the expression of mfn2 dose-dependently | reduced the expression of these two genes in a dose-dependent manner | elevation in p62 levels | promoted the transcription of proinflammatory cytokine genes il1β and il6 | significantly and dose-dependently reduced | 558 µM | decrease in the mitochondrial density | significantly reduced | marked and dose-dependent increase | 232 µM |
| COc1ccc2cc3[n+](cc2c1OC)CCc1cc2c(cc1-3)OCO2 [BBR, berberine] | dose-dependently reduced bcl2a expression | increasing the expression of baxa, caspase9, caspase3 and caspase7 | increasing that of drp1 in a concentration-dependent manner | decreasing the expression of lc3b | decreased the expression of mfn2 dose-dependently | reduced the expression of these two genes in a dose-dependent manner | elevation in p62 levels | promoted the transcription of proinflammatory cytokine genes il1β and il6 | significantly and dose-dependently reduced | 167 µM | decrease in the mitochondrial density | significantly reduced | marked and dose-dependent increase | 301 µM |

Reference: publication PMC12693135, “Ocular Toxicity and Mechanistic Investigation for Berberine and Its Metabolite Berberrubine on Zebrafish” (Molecules, 2025)
